Results from patent US20170190671A1, “BIS(ARYL)CATECHOL DERIVATIVES AS HERBICIDES” (E I DU PONT DE NEMOURS AND COMPANY, priority 2014, published 2017).

Assays:
[1] = tested on: sedge, umbrella (small-flower umbrella sedge, Cyperus difformis); assay: Test B flooded paddy; assay type: in vivo; conditions: Cyperus difformis, 336 h; 250 g ai/ha, Flood, 13 to 15 days, scale 0 (no effect) to 100 (complete control); read-out: Plant response rating, Sedge, Umbrella
How it was run: (§1)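 Greenhouse pots flooded to 3 cm above soil at time of treatment received compound via the water, which stayed at that level.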

rice (Oryza sativa) = assay: Test B flooded paddy; assay type: in vivo; conditions: Oryza sativa, 336 h; 250 g ai/ha, Flood, 13 to 15 days, scale 0 (no effect) to 100 (complete control); read-out: Plant response rating, Rice
How it was run: as §1

[2] = tested on: ducksalad (Heteranthera limosa); assay: Test B flooded paddy; assay type: in vivo; conditions: Heteranthera limosa, 336 h; 250 g ai/ha, Flood, 13 to 15 days, scale 0 (no effect) to 100 (complete control); read-out: Plant response rating, Ducksalad
How it was run: as §1

[3] = tested on: barnyardgrass (Echinochloa crus-galli); assay: Test B flooded paddy; assay type: in vivo; conditions: Echinochloa crus-galli, 336 h; 250 g ai/ha, Flood, 13 to 15 days, scale 0 (no effect) to 100 (complete control); read-out: Plant response rating, Barnyardgrass
How it was run: as §1

kochia (Kochia scoparia) [4] = assay: Test A preemergence; assay type: in vivo; conditions: Bassia scoparia, pre-emergence, 240 h, 0 to 100 scale (0 no effect, 100 complete control), read-out: Kochia plant response rating; for pest or weed control at 31 g/ha: 31 g ai/ha; for pest or weed control at 125 g/ha: 125 g ai/ha
How it was run: (§2)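 Greenhouse pot test, loam/sand soil. Formulation: non-phytotoxic solvent mix plus surfactant. Pre: directed spray onto soil after sowing. Post: plants at 1–2 leaf, 2–10 cm. Rated visually vs untreated controls at ~10 d, 0 (no effect) to 100 (complete control).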

[5] = tested on: barnyardgrass (Echinochloa crus-galli); assay: Test A preemergence; assay type: in vivo; conditions: Echinochloa crus-galli, pre-emergence, 240 h, 0 to 100 scale (0 no effect, 100 complete control), read-out: Barnyardgrass plant response rating; for pest or weed control at 31 g/ha: 31 g ai/ha; for pest or weed control at 125 g/ha: 125 g ai/ha
How it was run: as §2

[6] = tested on: Italian ryegrass (Lolium multiflorum); assay: Test A preemergence; assay type: in vivo; conditions: Lolium multiflorum, pre-emergence, 240 h, 0 to 100 scale (0 no effect, 100 complete control), read-out: Ryegrass, Italian plant response rating; for pest or weed control at 31 g/ha: 31 g ai/ha; for pest or weed control at 125 g/ha: 125 g ai/ha
How it was run: as §2

[7] = tested on: pigweed (Amaranthus retroflexus); assay: Test A preemergence; assay type: in vivo; conditions: Amaranthus retroflexus, pre-emergence, 240 h, 0 to 100 scale (0 no effect, 100 complete control), read-out: Pigweed plant response rating; for pest or weed control at 31 g/ha: 31 g ai/ha; for pest or weed control at 125 g/ha: 125 g ai/ha
How it was run: as §2

[8] = tested on: ragweed (common ragweed, Ambrosia elatior); assay: Test A preemergence; assay type: in vivo; conditions: Ambrosia artemisiifolia, pre-emergence, 240 h, 0 to 100 scale (0 no effect, 100 complete control), read-out: Ragweed plant response rating; for pest or weed control at 31 g/ha: 31 g ai/ha; for pest or weed control at 125 g/ha: 125 g ai/ha
How it was run: as §2

[9] = tested on: giant foxtail (Setaria faberii); assay: Test A preemergence; assay type: in vivo; conditions: Setaria faberi, pre-emergence, 240 h, 0 to 100 scale (0 no effect, 100 complete control), read-out: Foxtail, Giant plant response rating; for pest or weed control at 31 g/ha: 31 g ai/ha; for pest or weed control at 125 g/ha: 125 g ai/ha
How it was run: as §2

[10] = tested on: blackgrass (Alopecurus myosuroides); assay: Test A postemergence; assay type: in vivo; conditions: Alopecurus myosuroides, post-emergence, 240 h, 0 to 100 scale, read-out: Plant response rating, Blackgrass; for pest or weed control at 31 g/ha: 31 g ai/ha; for pest or weed control at 125 g/ha: 125 g ai/ha
How it was run: as §2

kochia (Kochia scoparia) [11] = assay: Test A postemergence; assay type: in vivo; conditions: Bassia scoparia, post-emergence, 240 h, 0 to 100 scale, read-out: Plant response rating, Kochia; for pest or weed control at 31 g/ha: 31 g ai/ha; for pest or weed control at 125 g/ha: 125 g ai/ha
How it was run: as §2

corn (Zea mays) = assay: Test A postemergence; assay type: in vivo; conditions: Zea mays, post-emergence, 240 h, 0 to 100 scale; for Corn plant response rating (crop injury, 0 = no effect, 100 = complete kill) at 31 g/ha: 31 g ai/ha; for Corn plant response rating (crop injury, 0 = no effect, 100 = complete kill) at 125 g/ha: 125 g ai/ha
How it was run: as §2

[12] = tested on: galium (catchweed bedstraw, Galium aparine); assay: Test A postemergence; assay type: in vivo; conditions: Galium, post-emergence, 240 h, 0 to 100 scale, read-out: Plant response rating, Galium; for pest or weed control at 31 g/ha: 31 g ai/ha; for pest or weed control at 125 g/ha: 125 g ai/ha
How it was run: as §2

[13] = tested on: barnyardgrass (Echinochloa crus-galli); assay: Test A postemergence; assay type: in vivo; conditions: Echinochloa crus-galli, post-emergence, 240 h, 0 to 100 scale, read-out: Plant response rating, Barnyardgrass; for pest or weed control at 31 g/ha: 31 g ai/ha; for pest or weed control at 125 g/ha: 125 g ai/ha
How it was run: as §2

[14] = tested on: wheat (Triticum aestivum); assay: Test A postemergence; assay type: in vivo; conditions: Triticum aestivum, post-emergence, 240 h, 0 to 100 scale, read-out: Plant response rating, Wheat; for plant injury at 31 g/ha: 31 g ai/ha; for plant injury at 125 g/ha: 125 g ai/ha
How it was run: as §2

[15] = tested on: Italian ryegrass (Lolium multiflorum); assay: Test A postemergence; assay type: in vivo; conditions: Lolium multiflorum, post-emergence, 240 h, 0 to 100 scale, read-out: Plant response rating, Ryegrass, Italian; for pest or weed control at 31 g/ha: 31 g ai/ha; for pest or weed control at 125 g/ha: 125 g ai/ha
How it was run: as §2

[16] = tested on: pigweed (Amaranthus retroflexus); assay: Test A postemergence; assay type: in vivo; conditions: Amaranthus retroflexus, post-emergence, 240 h, 0 to 100 scale, read-out: Plant response rating, Pigweed; for pest or weed control at 31 g/ha: 31 g ai/ha; for pest or weed control at 125 g/ha: 125 g ai/ha
How it was run: as §2

[17] = tested on: ragweed (common ragweed, Ambrosia elatior); assay: Test A postemergence; assay type: in vivo; conditions: Ambrosia artemisiifolia, post-emergence, 240 h, 0 to 100 scale, read-out: Plant response rating, Ragweed; for pest or weed control at 31 g/ha: 31 g ai/ha; for pest or weed control at 125 g/ha: 125 g ai/ha
How it was run: as §2

[18] = tested on: giant foxtail (Setaria faberii); assay: Test A postemergence; assay type: in vivo; conditions: Setaria faberi, post-emergence, 240 h, 0 to 100 scale, read-out: Plant response rating, Foxtail, Giant; for pest or weed control at 31 g/ha: 31 g ai/ha; for pest or weed control at 125 g/ha: 125 g ai/ha
How it was run: as §2

Row | SMILES | pest or weed control at 250 g/ha [1] | plant injury at 250 g/ha (rice (Oryza sativa)) | pest or weed control at 250 g/ha [2] | pest or weed control at 250 g/ha [3] | pest or weed control at 31 g/ha (kochia (Kochia scoparia) [4]) | pest or weed control at 125 g/ha (kochia (Kochia scoparia) [4]) | pest or weed control at 31 g/ha [5] | pest or weed control at 125 g/ha [5] | pest or weed control at 31 g/ha [6] | pest or weed control at 125 g/ha [6] | pest or weed control at 31 g/ha [7] | pest or weed control at 125 g/ha [7] | pest or weed control at 31 g/ha [8] | pest or weed control at 125 g/ha [8] | pest or weed control at 31 g/ha [9] | pest or weed control at 125 g/ha [9] | melting point | pest or weed control at 31 g/ha [10] | pest or weed control at 125 g/ha [10] | pest or weed control at 31 g/ha (kochia (Kochia scoparia) [11]) | further results
1 | N#Cc1cccc(Oc2ncc(Cl)cn2)c1Oc1cccc(Cl)c1 [Compound 37] | 0% | 0% | 0% | 0% | 0% | 0% | 0% | 0% | 0% | 0% | 0% | 0% | 0% | 0% | 0% | 0% | 122 to 126 °C | 0% | 0% | 0% | pest or weed control at 125 g/ha (kochia (Kochia scoparia) [11]): 0%; Corn plant response rating (crop injury, 0 = no effect, 100 = complete kill) at 31 g/ha (corn (Zea mays)): 0%; Corn plant response rating (crop injury, 0 = no effect, 100 = complete kill) at 125 g/ha (corn (Zea mays)): 0%; pest or weed control at 31 g/ha [12]: 0%; pest or weed control at 125 g/ha [12]: 0%; pest or weed control at 31 g/ha [13]: 0%; pest or weed control at 125 g/ha [13]: 0%; plant injury at 31 g/ha [14]: 0%; plant injury at 125 g/ha [14]: 0%; pest or weed control at 31 g/ha [15]: 0%; pest or weed control at 125 g/ha [15]: 0%; pest or weed control at 31 g/ha [16]: 0%; pest or weed control at 125 g/ha [16]: 0%; pest or weed control at 31 g/ha [17]: 0%; pest or weed control at 125 g/ha [17]: 0%; pest or weed control at 31 g/ha [18]: 0%; pest or weed control at 125 g/ha [18]: 0%
2 | N#Cc1cccc(Oc2ncc(Cl)cn2)c1Oc1ccccc1Cl [Compound 40] | 0% | 0% | 0% | 0% | 0% | 0% | 0% | 0% | 0% | 0% | 0% | 0% | 0% | 0% | 0% | 0% | 120 to 123 °C | 0% | 0% | 0% | pest or weed control at 125 g/ha (kochia (Kochia scoparia) [11]): 0%; Corn plant response rating (crop injury, 0 = no effect, 100 = complete kill) at 31 g/ha (corn (Zea mays)): 0%; Corn plant response rating (crop injury, 0 = no effect, 100 = complete kill) at 125 g/ha (corn (Zea mays)): 0%; pest or weed control at 31 g/ha [12]: 0%; pest or weed control at 125 g/ha [12]: 10%; pest or weed control at 31 g/ha [13]: 0%; pest or weed control at 125 g/ha [13]: 0%; plant injury at 31 g/ha [14]: 0%; plant injury at 125 g/ha [14]: 0%; pest or weed control at 31 g/ha [15]: 0%; pest or weed control at 125 g/ha [15]: 0%; pest or weed control at 31 g/ha [16]: 0%; pest or weed control at 125 g/ha [16]: 30%; pest or weed control at 31 g/ha [17]: 0%; pest or weed control at 125 g/ha [17]: 0%; pest or weed control at 31 g/ha [18]: 0%; pest or weed control at 125 g/ha [18]: 0%
